Measured values as given in patent publication US9248134B1, “Fe(III) complex compounds for the treatment and prophylaxis of iron deficiency symptoms and iron deficiency anemias” (Vifor (International) AG, priority 2013, dated 2016).

test system: Male NMRI (SPF) mice fed a low-iron diet; assay: Iron utilization in mouse model (low-iron diet); type: in vivo; settings: stomach tube, 2 mg iron/kg body weight/day, days 1-5 and 8-12; utilization on day 15 calculated from hemoglobin increase and body weight increase
Procedure: The excellent Fe utilizations that can be accomplished through the Fe complexes according to the invention were measured by means of the following mouse model.
Male NMRI (SPF) mice (approximately 3 weeks old) were fed a low-iron diet (approx. 5 ppm iron) for approximately 3 weeks. The iron complexes were then administered to them by means of a stomach tube (2 mg iron/kg body weight/day) for 2 times 5 days, with an interruption of 2 days (days 1-5 and 8-12). 6 mice were the control group (negative control) and were administered with water instead. Utilization on day 15 was calculated from the hemoglobin increase and the body weight increase in accordance with the formula
[formula] • 0.07=Factor for 70 ml blood per kg body weight (BW) • 0.0034=Factor for 0.0034 g Fe/g Hb • Hb1=Hemoglobin level (g/l) on day 1 • Hb2(3)=Hemoglobin level (g/l) on day 8 (or 15) • BW4=body weight (g) on day 1 • BW9(14)=body weight (g) on day 8 (or 15) • Hb1 Control=average hemoglobin level (g/l) on day 1 in the control group, • Hb2(3) Control=average hemoglobin level (g/l) on day 8 (or 15) in the control group, • BW4 Control=average body weight (g) on day 1 in the control group, • BW9(14) Control=average body weight (g) on day 8 (or 15) in the control group, • Fe Dos.=entire administered iron (mg Fe) over 5 or 10 days, • Fe ut.=(Hb2(3)*BW9(14)−Hb1*BW4)*0.07*0.0034 (mg Fe) • Δ Utilization=Fe tot. utilized (examined group)−Fe ut. Control group, utilized from food, (mg Fe)

In order of falling “Utilization n 15 d (abs. %)” value:
1. Tris-(3-hydroxy-N-(2-methoxyethyl)isonicotinamide) iron(III) complex [Example 7]  76 abs. %
2. Tris-(N-butyl-3-hydroxyisonicotinamide) iron(III) complex [Example 6]  76 abs. %
3. Tris-(3-hydroxy-N,N-dimethylisonicotinamide) iron(III) complex [Example 1]  68 abs. %
